Measured values as given in patent US8946280B2, “Plant growth regulating compounds” (Syngenta Participations AG, priority 2010, dated 2015).
Values belong to the compound of their own block, whether it stands above or below them.

Legend:
[1] = system: Orobanche cumana Wallr. seeds (race F; seed lots IN146 and IN153); assay: Germination of preconditioned Orobanche cumana seeds on glass fiber filter paper in petri dishes; format: in vivo; settings: mean, N = 5 × 100 seeds, re-transformed data; for Germination (%): seed lot IN146 raceF, examined 10 days later
Description: The effect of compounds of formula (I) on germination of Orobanche cumana Wallr. seeds was evaluated on glass fiber filter paper (GFFP) in petri dishes. Seeds were preconditioned at moisture and suitable temperature to become responsive to the specific chemical germination stimulants.
Test compounds were dissolved in DMSO (10 000 mg 1^−1) and stored at room temperature in a desiccators with desiccants. The stock solutions were dissolved with deionised water to the appropriate final test concentration.
Seeds of O. cumana race ‘F’ were collected from sunflower fields in Manzanilla (Seville, Spain) in 2006 (seed lot IN146) and 2008 (seed lot IN153) and stored at room temperature. To separate seeds from heavy organic debris, a modified sucrose floatation technique as described by Hartman & Tanimonure (Plant Disease (1991), 75, p. 494) was applied. Seeds were filled into a separation funnel and stirred in water. When seeds floated to the surface, the water fraction containing heavy debris was discarded. Seeds were re-suspended in 2.5M sucrose solution (specific gravity of 1.20) and heavy debris was allowed to settle down for 60 min. After removing debris, seeds were disinfected in 1% sodium hypochlorite solution and 0.025% (v/v) Tween 20 for 2 min. The seeds were decanted onto two layers of cheesecloth, rinsed with sterile deionised water and re-suspended in sterile deionised water. Two ml of the seed suspension containing approximately 150-400 seeds were spread evenly on two layers of sterile glass fiber filter paper disc ([…]) in Petri dishes (Ø9 cm). After wetting the discs with 3 ml sterile deionised water, petri dishes were sealed with parafilm. Seeds were incubated for 10 days at 20° C. in the dark for seed conditioning. The upper disc with conditioned seeds was briefly dried, transferred to a petri dish lined with a dry GFFP disc, and wetted with 6 ml of the appropriate test solution. The compounds of formula (I) were tested at concentrations of 0.001, 0.01, and 0.1 mg 1^−1. The strigolactone analogue GR24 (commercially available as a mixture of isomers) was included as positive control and 0.001% DMSO as negative control. All treatments were tested in five replicates. Seeds were re-incubated at 20° C. in the dark and examined for germination 10 days later. The radicles of germinated seeds were stained for 5 min with blue ink (MIGROS, Switzerland) in 5% acetic acid according to Long et al. (Seed Science Research (2008), 18, p. 125). After staining, seeds were scanned using a flatbed scanner with an optical resolution of 1200 dpi (PULSTEK, OpticPro ST28) or photographed using a camera stand mounted with a digital SLR camera (Canon EOS 5D). Germination of 100 seeds per replicate was evaluated on digital images. Seeds were considered germinated when the radicle protruded from the seed coat. SAS statistical software package version 9.1 was used for analysis of variance (GLM procedure) and multiple comparisons of treatment means (Sidak t-test) based on arcsine transformed percentage germination data.

- melting point: 130 to 135 °C
SMILES: CC1=CC(O/C=C2/C(=O)N(C)C3c4ccccc4C[C@H]23)OC1=O (stereo in doubt) [Compound P3, 1-Methyl-(3aR*,8bS*,5′R*)-3-[1-(4-Methyl-5-oxo-2,5-dihydro-furan-2-yloxy)-meth-(E)-ylidene]-3,3a,4,8b-tetrahydro-1H-indeno[1,2-b]pyrrol-2-one]
- Germination (%) ([1]; 0.001 mg l^−1): 68%
- Germination (%) ([1]; 0.01 mg l^−1): 82.4%
- Germination (%) ([1]; 0.1 mg l^−1): 84%

SMILES: CC1=CC(O/C=C2/C(=O)NC3c4ccccc4C[C@H]23)OC1=O (stereo in doubt) [Compound P1, (3aR*,8bS*,5′R*)-3-[1-(4-Methyl-5-oxo-2,5-dihydro-furan-2-yloxy)-meth-(E)-ylidene]-3,3a,4,8b-tetrahydro-1H-indeno[1,2-b]pyrrol-2-one]
- Germination (%) ([1]; 0.001 mg l^−1): 70.5%
- Germination (%) ([1]; 0.01 mg l^−1): 83.7%
- Germination (%) ([1]; 0.1 mg l^−1): 83.1%

SMILES: CC1=CC(OC=C2C(=O)N(c3nccs3)C3c4ccccc4CC23)OC1=O (stereo not shown) [Compound A26]
- Germination % at concentration of 0.001 mg l^−1 ([1]; Table 8, seed lot IN153, race F, 0.001 mg l^−1): 93.9 abc %
- Germination % at concentration of 0.01 mg l^−1 ([1]; Table 8, seed lot IN153, race F, 0.01 mg l^−1): 95.4 ab %
- Germination % at concentration of 0.1 mg l^−1 ([1]; Table 8, seed lot IN153, race F, 0.1 mg l^−1): 93.9 abc %

SMILES: CC1=C[C@H](O/C=C2/C(=O)O[C@@H]3c4ccccc4C[C@H]23)OC1=O [GR24, reference compound]
- Germination (%) ([1]; 0.001 mg l^−1): 25.9%
- Germination (%) ([1]; 0.01 mg l^−1): 44.9%
- Germination (%) ([1]; 0.1 mg l^−1): 59.8%

SMILES: CC1=CC(OC=C2C(=O)NC3c4cc(C)ccc4CC23)OC1=O (stereo not shown) [Compound A3]
- Germination % at concentration of 0.001 mg l^−1 ([1]; Table 7, seed lot IN153, race F, 0.001 mg l^−1): 96.4 ab %
- Germination % at concentration of 0.01 mg l^−1 ([1]; Table 7, seed lot IN153, race F, 0.01 mg l^−1): 98.5 a %
- Germination % at concentration of 0.1 mg l^−1 ([1]; Table 7, seed lot IN153, race F, 0.1 mg l^−1): 98.0 a %

SMILES: CC1=CC(OC=C2C(=O)NC3c4c(C)cccc4CC23)OC1=O (stereo not shown) [Compound A8]
- Germination % at concentration of 0.001 mg l^−1 ([1]; Table 6, seed lot IN146, race F, 0.001 mg l^−1): 72.9 bc %
- Germination % at concentration of 0.01 mg l^−1 ([1]; Table 6, seed lot IN146, race F, 0.01 mg l^−1): 84.4 abc %
- Germination % at concentration of 0.1 mg l^−1 ([1]; Table 6, seed lot IN146, race F, 0.1 mg l^−1): 69.9 bc %
